Data: publication PMC6154583, “Optimized 4,5-Diarylimidazoles as Potent/Selective Inhibitors of Protein Kinase CK1δ and Their Structural Relation to p38α MAPK” (Molecules : A Journal of Synthetic Chemistry and Natural …, 2017)

How the values were obtained:
Format in all cases: biochemical
[1] = molecular target: T1, CDC42BPB (Homo sapiens, UniProt Q9Y5S2); test: ProQinase 33PanQinase selectivity profiling; details: 100 nM, relative to control, read-out: Residual activity (%)
T1 construct: purchased ProQinase GmbH

[2] = molecular target: CAMK2G (Homo sapiens, UniProt Q13555); test: ProQinase 33PanQinase selectivity profiling; details: 100 nM, relative to control, read-out: Residual activity (%)
[3] = molecular target: CAMK4 (Homo sapiens, UniProt Q16566); test: ProQinase 33PanQinase selectivity profiling; details: 100 nM, relative to control, read-out: Residual activity (%)
[4] = molecular target: JNK2 (Homo sapiens, UniProt P45984); test: ProQinase 33PanQinase selectivity profiling; details: 100 nM, relative to control, read-out: residual activity
[5] = molecular target: T2, AKT2 aa107-481 (Homo sapiens, UniProt P31751); test: ProQinase 33PanQinase selectivity profiling; details: 100 nM, relative to control, read-out: Residual activity (%)
T2 construct: AKT2 aa107-481; purchased ProQinase GmbH (Freiburg, Germany)

[6] = molecular target: CLK4 (Homo sapiens, UniProt Q9HAZ1); test: ProQinase 33PanQinase selectivity profiling; details: 100 nM, relative to control, read-out: Residual activity (%)
[7] = molecular target: CDK5/p35NCK (Homo sapiens, UniProt Q00535); test: ProQinase 33PanQinase selectivity profiling; details: 100 nM, relative to control, read-out: Residual activity (%)
[8] = molecular target: T3, AXL (Homo sapiens, UniProt P30530); test: ProQinase 33PanQinase selectivity profiling; details: 100 nM, relative to control, read-out: Residual activity (%)
T3 construct: purchased ProQinase GmbH (Freiburg, Germany)

[9] = molecular target: T4, EIF2AK2 (Homo sapiens, UniProt P19525); test: ProQinase 33PanQinase selectivity profiling; details: 100 nM, relative to control, read-out: Residual activity (%)
T4 construct: purchased ProQinase GmbH

[10] = molecular target: CDK4/CycD3 (Homo sapiens, UniProt P11802); test: ProQinase 33PanQinase selectivity profiling; details: 100 nM, relative to control, read-out: Residual activity (%)
[11] = molecular target: T5, AKT3 aa106-479 (Homo sapiens, UniProt Q9Y243); test: ProQinase 33PanQinase selectivity profiling; details: 100 nM, relative to control, read-out: Residual activity (%)
T5 construct: AKT3 aa106-479; purchased ProQinase GmbH (Freiburg, Germany)

[12] = molecular target: CLK2 (Homo sapiens, UniProt P49760); test: ProQinase 33PanQinase selectivity profiling; details: 100 nM, relative to control, read-out: Residual activity (%)
[13] = molecular target: DCAMKL2 (Homo sapiens, UniProt Q8N568); test: ProQinase 33PanQinase selectivity profiling; details: 100 nM, relative to control, read-out: Residual activity (%)
[14] = molecular target: CK2-alpha2 (Homo sapiens, UniProt P19784); test: ProQinase 33PanQinase selectivity profiling; details: 100 nM, relative to control, read-out: Residual activity (%)
[15] = molecular target: T6, AMPK-alpha1 aa1-550 (Homo sapiens, UniProt Q13131); test: ProQinase 33PanQinase selectivity profiling; details: 100 nM, relative to control, read-out: Residual activity (%)
T6 construct: AMPK-alpha1 aa1-550; purchased ProQinase GmbH (Freiburg, Germany)

[16] = molecular target: CK1-gamma3 (Homo sapiens, UniProt Q9Y6M4); test: ProQinase 33PanQinase selectivity profiling; details: 100 nM, relative to control
[17] = molecular target: T7, CDC42BPA (Homo sapiens, UniProt Q5VT25); test: ProQinase 33PanQinase selectivity profiling; details: 100 nM, relative to control, read-out: Residual activity (%)
T7 construct: purchased ProQinase GmbH

[18] = molecular target: DAPK3 (Homo sapiens, UniProt O43293); test: ProQinase 33PanQinase selectivity profiling; details: 100 nM, relative to control, read-out: Residual activity (%)
[19] = molecular target: T8, BUB1B (Homo sapiens, UniProt O60566); test: ProQinase 33PanQinase selectivity profiling; details: 100 nM, relative to control, read-out: Residual activity (%)
T8 construct: purchased ProQinase GmbH

[20] = test system: panel of 321 protein kinases; test: Selectivity profiling in a panel of 321 protein kinases (ProQinase); details: 100 nM
[21] = molecular target: CHK1 (Homo sapiens, UniProt O14757); test: ProQinase 33PanQinase selectivity profiling; details: 100 nM, relative to control, read-out: Residual activity (%)
[22] = molecular target: CDK9/CycT1 (Homo sapiens, UniProt P50750); test: ProQinase 33PanQinase selectivity profiling; details: 100 nM, relative to control, read-out: Residual activity (%)
[23] = molecular target: CDK9/CycK (Homo sapiens, UniProt P50750); test: ProQinase 33PanQinase selectivity profiling; details: 100 nM, relative to control, read-out: Residual activity (%)
[24] = molecular target: DAPK1 (Homo sapiens, UniProt P53355); test: ProQinase 33PanQinase selectivity profiling; details: 100 nM, relative to control, read-out: Residual activity (%)
[25] = molecular target: ARK5 (Homo sapiens, UniProt O60285); test: ProQinase 33PanQinase selectivity profiling; details: 100 nM, relative to control, read-out: Residual activity (%)
[26] = molecular target: CAMK2D (Homo sapiens, UniProt Q13557); test: ProQinase 33PanQinase selectivity profiling; details: 100 nM, relative to control, read-out: Residual activity (%)
[27] = molecular target: DYRK3 (Homo sapiens, UniProt O43781); test: ProQinase 33PanQinase selectivity profiling; details: 100 nM, relative to control, read-out: Residual activity (%)
[28] = molecular target: LCK (Homo sapiens, UniProt P06239); test: ProQinase 33PanQinase selectivity profiling; details: 100 nM, relative to control, read-out: residual activity
[29] = molecular target: DYRK1B (Homo sapiens, UniProt Q9Y463); test: ProQinase 33PanQinase selectivity profiling; details: 100 nM, relative to control, read-out: Residual activity (%)
[30] = molecular target: CDK5/p25NCK (Homo sapiens, UniProt Q00535); test: ProQinase 33PanQinase selectivity profiling; details: 100 nM, relative to control, read-out: Residual activity (%)
[31] = molecular target: T9, COT (Homo sapiens, UniProt P41279); test: ProQinase 33PanQinase selectivity profiling; details: 100 nM, relative to control, read-out: Residual activity (%)
T9 construct: purchased ProQinase GmbH

[32] = molecular target: CDK8/CycC (Homo sapiens, UniProt P49336); test: ProQinase 33PanQinase selectivity profiling; details: 100 nM, relative to control, read-out: Residual activity (%)
[33] = molecular target: BRSK1 (Homo sapiens, UniProt Q8TDC3); test: ProQinase 33PanQinase selectivity profiling; details: 100 nM, relative to control, read-out: Residual activity (%)
[34] = molecular target: RIPK2 (Homo sapiens, UniProt O43353); test: ProQinase 33PanQinase selectivity profiling; details: 100 nM, relative to control, read-out: residual activity
[35] = molecular target: T10, BRK (Homo sapiens, UniProt Q13882); test: ProQinase 33PanQinase selectivity profiling; details: 100 nM, relative to control, read-out: Residual activity (%)
T10 construct: purchased ProQinase GmbH

[36] = molecular target: CAMK2A (Homo sapiens, UniProt Q9UQM7); test: ProQinase 33PanQinase selectivity profiling; details: 100 nM, relative to control, read-out: Residual activity (%)
[37] = molecular target: CDK6/CycD3 (Homo sapiens, UniProt Q00534); test: ProQinase 33PanQinase selectivity profiling; details: 100 nM, relative to control, read-out: Residual activity (%)
[38] = molecular target: p38α MAPK (Homo sapiens, UniProt Q16539); test: ProQinase 33PanQinase selectivity profiling; details: 100 nM, relative to control, read-out: residual activity
[39] = molecular target: CK1-alpha1 (Homo sapiens, UniProt P48729); test: ProQinase 33PanQinase selectivity profiling; details: 100 nM, relative to control, read-out: Residual activity (%)
[40] = molecular target: CDK1/CycE1 (Homo sapiens, UniProt P06493); test: ProQinase 33PanQinase selectivity profiling; details: 100 nM, relative to control, read-out: Residual activity (%)
[41] = molecular target: CSK (Homo sapiens, UniProt P41240); test: ProQinase 33PanQinase selectivity profiling; details: 100 nM, relative to control, read-out: Residual activity (%)

CK1-gamma3, sequence (Q9Y6M4 whole entry): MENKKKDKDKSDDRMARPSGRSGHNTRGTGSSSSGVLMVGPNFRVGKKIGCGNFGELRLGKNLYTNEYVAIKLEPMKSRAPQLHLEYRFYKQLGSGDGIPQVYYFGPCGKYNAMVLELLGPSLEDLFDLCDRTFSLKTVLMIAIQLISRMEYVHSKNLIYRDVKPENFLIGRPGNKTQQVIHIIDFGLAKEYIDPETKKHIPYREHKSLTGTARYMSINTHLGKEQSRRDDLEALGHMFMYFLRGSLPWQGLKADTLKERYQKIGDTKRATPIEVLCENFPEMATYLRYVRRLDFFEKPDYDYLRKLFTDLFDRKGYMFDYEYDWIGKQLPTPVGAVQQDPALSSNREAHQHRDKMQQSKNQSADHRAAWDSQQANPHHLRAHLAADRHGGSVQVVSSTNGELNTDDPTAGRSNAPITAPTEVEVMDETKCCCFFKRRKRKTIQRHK
DYRK1B, sequence (Q9Y463 whole entry): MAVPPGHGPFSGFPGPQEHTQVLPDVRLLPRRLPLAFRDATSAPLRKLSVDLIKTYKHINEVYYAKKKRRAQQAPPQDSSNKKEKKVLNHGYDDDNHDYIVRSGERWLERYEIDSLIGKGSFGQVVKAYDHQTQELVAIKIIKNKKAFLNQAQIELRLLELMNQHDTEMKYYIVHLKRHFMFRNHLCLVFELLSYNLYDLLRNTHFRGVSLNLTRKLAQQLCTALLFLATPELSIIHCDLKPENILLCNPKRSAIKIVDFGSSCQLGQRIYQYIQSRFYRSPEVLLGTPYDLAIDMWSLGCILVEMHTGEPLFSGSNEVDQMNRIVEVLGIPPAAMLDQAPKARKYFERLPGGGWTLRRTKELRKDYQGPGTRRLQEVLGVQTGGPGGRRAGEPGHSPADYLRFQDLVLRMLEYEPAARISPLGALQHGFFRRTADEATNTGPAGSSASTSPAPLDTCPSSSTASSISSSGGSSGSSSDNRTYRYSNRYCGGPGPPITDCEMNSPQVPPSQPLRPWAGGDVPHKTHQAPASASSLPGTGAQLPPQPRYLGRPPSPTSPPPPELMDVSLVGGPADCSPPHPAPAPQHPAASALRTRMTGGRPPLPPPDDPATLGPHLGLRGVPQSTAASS
CHK1, sequence (O14757 whole entry): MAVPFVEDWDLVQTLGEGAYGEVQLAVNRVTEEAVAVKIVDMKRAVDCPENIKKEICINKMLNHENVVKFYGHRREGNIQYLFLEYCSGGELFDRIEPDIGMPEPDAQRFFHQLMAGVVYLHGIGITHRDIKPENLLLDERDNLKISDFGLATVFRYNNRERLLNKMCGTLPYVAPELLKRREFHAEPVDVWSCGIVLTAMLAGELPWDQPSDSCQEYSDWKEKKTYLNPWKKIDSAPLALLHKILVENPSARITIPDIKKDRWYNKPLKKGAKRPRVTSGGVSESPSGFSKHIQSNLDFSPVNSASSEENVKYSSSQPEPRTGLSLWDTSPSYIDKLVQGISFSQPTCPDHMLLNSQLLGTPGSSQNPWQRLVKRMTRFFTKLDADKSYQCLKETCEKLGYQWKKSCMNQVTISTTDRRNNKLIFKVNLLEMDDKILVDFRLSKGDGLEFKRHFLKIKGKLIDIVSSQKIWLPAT
CDK8/CycC, sequence (P49336 whole entry): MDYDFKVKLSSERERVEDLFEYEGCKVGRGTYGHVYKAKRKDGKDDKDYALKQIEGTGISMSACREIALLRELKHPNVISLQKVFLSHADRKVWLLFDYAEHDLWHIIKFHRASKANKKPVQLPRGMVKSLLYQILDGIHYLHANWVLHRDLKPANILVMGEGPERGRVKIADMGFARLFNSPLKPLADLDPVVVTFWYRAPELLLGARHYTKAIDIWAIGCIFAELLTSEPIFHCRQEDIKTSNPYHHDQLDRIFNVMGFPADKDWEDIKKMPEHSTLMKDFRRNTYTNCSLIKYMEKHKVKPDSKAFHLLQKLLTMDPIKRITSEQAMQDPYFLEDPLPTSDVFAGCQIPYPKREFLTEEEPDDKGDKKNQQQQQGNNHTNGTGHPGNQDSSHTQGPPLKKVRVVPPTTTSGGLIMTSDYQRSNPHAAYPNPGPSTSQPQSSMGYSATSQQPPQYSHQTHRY
CDK8/CycC, sequence (P24863 whole entry partner): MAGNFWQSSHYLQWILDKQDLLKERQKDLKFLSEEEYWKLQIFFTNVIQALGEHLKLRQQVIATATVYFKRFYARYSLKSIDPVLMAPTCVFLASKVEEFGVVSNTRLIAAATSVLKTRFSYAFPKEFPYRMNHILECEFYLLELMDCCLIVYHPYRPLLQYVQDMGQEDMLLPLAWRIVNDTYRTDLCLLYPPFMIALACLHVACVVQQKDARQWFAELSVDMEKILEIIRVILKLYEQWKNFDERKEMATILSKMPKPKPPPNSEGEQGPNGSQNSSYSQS
ARK5, sequence (O60285 whole entry): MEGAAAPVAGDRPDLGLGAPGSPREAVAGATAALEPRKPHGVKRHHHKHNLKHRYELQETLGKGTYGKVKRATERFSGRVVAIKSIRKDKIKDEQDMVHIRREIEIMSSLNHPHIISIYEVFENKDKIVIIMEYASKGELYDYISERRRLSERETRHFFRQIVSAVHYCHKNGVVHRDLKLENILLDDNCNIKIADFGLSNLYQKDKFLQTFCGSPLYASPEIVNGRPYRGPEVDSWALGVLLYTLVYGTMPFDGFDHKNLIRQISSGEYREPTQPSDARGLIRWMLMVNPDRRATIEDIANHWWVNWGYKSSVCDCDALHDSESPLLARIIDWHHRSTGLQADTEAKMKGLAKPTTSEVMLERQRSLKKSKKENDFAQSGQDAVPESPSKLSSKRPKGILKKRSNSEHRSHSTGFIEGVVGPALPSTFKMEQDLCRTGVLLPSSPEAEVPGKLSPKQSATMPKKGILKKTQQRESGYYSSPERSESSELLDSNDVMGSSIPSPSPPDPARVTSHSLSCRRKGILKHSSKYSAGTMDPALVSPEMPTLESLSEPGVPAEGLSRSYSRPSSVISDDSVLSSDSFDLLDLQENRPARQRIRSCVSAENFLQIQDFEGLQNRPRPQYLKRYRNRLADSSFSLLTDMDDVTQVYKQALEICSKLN
T4 sequence (P19525 whole entry): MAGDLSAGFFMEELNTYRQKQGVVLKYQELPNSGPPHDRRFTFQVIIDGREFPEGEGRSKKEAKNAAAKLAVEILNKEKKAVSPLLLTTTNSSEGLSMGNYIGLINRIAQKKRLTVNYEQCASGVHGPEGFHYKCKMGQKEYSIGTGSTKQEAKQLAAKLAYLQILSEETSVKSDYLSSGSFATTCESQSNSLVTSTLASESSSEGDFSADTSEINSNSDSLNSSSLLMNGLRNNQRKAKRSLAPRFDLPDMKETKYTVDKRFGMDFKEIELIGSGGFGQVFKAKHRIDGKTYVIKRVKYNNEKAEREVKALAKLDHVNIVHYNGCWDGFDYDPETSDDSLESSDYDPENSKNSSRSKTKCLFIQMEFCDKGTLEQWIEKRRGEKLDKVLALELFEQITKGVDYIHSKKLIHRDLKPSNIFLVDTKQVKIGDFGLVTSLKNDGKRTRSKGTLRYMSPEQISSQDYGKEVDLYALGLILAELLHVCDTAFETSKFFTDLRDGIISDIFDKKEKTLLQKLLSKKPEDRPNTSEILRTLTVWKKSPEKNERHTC
LCK, sequence (P06239 whole entry): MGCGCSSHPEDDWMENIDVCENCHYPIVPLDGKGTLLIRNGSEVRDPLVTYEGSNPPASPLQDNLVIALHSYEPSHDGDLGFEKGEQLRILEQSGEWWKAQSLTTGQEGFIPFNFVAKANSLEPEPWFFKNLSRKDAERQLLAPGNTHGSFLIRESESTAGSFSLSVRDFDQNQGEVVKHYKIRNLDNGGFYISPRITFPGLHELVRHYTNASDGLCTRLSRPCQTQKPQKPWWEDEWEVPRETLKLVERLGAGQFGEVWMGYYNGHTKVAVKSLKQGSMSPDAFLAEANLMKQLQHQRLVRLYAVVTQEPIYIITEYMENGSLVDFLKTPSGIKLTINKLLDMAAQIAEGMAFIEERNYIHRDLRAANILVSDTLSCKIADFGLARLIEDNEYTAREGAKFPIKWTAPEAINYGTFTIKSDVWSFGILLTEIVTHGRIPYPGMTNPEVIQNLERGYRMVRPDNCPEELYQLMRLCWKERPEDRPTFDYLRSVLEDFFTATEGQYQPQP
T9 sequence (P41279 whole entry): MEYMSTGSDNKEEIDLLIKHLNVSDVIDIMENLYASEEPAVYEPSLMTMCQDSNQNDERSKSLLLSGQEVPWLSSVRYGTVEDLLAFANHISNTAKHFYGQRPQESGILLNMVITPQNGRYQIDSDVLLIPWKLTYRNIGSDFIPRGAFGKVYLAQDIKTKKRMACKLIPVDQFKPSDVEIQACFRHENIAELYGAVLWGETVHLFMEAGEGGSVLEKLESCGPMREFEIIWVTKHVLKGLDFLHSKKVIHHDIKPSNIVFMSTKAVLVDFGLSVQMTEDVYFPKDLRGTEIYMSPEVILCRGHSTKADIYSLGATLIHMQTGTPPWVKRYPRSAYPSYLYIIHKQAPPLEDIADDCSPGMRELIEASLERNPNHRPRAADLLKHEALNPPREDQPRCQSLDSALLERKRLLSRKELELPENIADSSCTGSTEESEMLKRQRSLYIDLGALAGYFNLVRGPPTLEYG
CK2-alpha2, sequence (P19784 whole entry, the tested form may be a part): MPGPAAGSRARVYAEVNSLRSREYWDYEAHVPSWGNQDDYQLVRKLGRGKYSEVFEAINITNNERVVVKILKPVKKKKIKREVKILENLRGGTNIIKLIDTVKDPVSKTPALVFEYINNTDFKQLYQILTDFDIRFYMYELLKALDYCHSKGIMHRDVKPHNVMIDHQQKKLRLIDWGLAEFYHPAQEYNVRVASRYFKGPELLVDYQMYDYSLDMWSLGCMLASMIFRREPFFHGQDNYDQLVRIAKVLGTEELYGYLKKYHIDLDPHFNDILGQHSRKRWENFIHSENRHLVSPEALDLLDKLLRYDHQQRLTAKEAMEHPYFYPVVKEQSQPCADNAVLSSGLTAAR

## COc1ccc(OC)c(CCC(=O)Nc2cc(-c3nc(SC)[nH]c3-c3ccc(F)cc3)ccn2)c1 [11b, 3-(2,5-Dimethoxyphenyl)-N-(4-(5-(4-fluorophenyl)-2-(methylthio)-1H-imidazol-4-yl)-pyridin-2-yl)-propanamide]
[1]
  remaining activity at 0.1 µM: 88%
[2]
  remaining activity at 0.1 µM: 105%
[3]
  remaining activity at 0.1 µM: 95%
[4]
  remaining activity at 0.1 µM: 21%
[5]
  remaining activity at 0.1 µM: 97%
[6]
  remaining activity at 0.1 µM: 95%
[7]
  remaining activity at 0.1 µM: 85%
[8]
  remaining activity at 0.1 µM: 104%
[9]
  remaining activity at 0.1 µM: 91%
[10]
  remaining activity at 0.1 µM: 88%
[11]
  remaining activity at 0.1 µM: 83%
[12]
  remaining activity at 0.1 µM: 101%
[13]
  remaining activity at 0.1 µM: 94%
[14]
  remaining activity at 0.1 µM: 90%
[15]
  remaining activity at 0.1 µM: 96%
[16]
  Residual activity (%): unaffected
[16]; read-out: Residual activity (%)
  remaining activity at 0.1 µM: 73%
[17]
  remaining activity at 0.1 µM: 104%
[18]
  remaining activity at 0.1 µM: 85%
[19]
  remaining activity at 0.1 µM: 102%
[20]; 321 protein kinases, calculated in accordance to Karaman et al.
  selectivity score S(50): 0.027
[20]; panel of 321 protein kinases
  additional kinases with residual activities less than 50% apart from CK1δ and CK1ε: six
[21]
  remaining activity at 0.1 µM: 92%
[22]
  remaining activity at 0.1 µM: 93%
[23]
  remaining activity at 0.1 µM: 103%
[24]
  remaining activity at 0.1 µM: 96%
[25]
  remaining activity at 0.1 µM: 88%
[26]
  remaining activity at 0.1 µM: 96%
[27]
  remaining activity at 0.1 µM: 97%
[28]
  remaining activity at 0.1 µM: 26%
[29]
  remaining activity at 0.1 µM: 101%
[30]
  remaining activity at 0.1 µM: 117%
[31]
  remaining activity at 0.1 µM: 111%
[32]
  remaining activity at 0.1 µM: 90%
[33]
  remaining activity at 0.1 µM: 89%
[34]
  remaining activity at 0.1 µM: 45%
[35]
  remaining activity at 0.1 µM: 98%
[36]
  remaining activity at 0.1 µM: 95%
[37]
  remaining activity at 0.1 µM: 97%
[38]
  remaining activity at 0.1 µM: 22%
[39]
  remaining activity at 0.1 µM: 26%
[40]
  remaining activity at 0.1 µM: 97%
[41]
  remaining activity at 0.1 µM: 101%
